In the assay the target is T1, cAMP and cAMP-inhibited cGMP 3',5'-cyclic phosphodiesterase 10A (Rattus norvegicus, UniProt Q9QYJ6).
T1 sequence (Q9QYJ6 whole entry): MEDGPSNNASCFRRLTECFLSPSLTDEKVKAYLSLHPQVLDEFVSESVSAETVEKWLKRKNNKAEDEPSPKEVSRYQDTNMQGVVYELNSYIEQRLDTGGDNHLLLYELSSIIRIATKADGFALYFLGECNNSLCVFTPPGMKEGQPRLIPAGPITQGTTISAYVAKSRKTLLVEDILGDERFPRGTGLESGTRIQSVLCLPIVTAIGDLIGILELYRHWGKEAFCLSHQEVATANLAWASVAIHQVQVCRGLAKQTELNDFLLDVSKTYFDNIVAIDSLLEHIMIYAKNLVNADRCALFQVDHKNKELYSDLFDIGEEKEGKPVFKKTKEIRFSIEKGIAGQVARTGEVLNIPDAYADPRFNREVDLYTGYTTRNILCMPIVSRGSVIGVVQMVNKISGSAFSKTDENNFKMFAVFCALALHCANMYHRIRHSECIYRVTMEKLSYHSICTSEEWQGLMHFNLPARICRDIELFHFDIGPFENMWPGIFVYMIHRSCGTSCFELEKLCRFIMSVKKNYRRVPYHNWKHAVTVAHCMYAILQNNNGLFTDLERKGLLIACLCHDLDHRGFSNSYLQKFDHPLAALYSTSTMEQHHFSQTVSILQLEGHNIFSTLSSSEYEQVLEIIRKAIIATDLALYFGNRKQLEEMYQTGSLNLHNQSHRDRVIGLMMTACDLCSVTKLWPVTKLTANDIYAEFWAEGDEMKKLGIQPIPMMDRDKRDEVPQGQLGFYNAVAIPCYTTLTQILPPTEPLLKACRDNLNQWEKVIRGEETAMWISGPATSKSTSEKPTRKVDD
In words: In Vitro Assay rPDE10: Rat recombinant PDE10a (rPDE10a) was expressed in Sf9 cells using a recombinant rPDE10a baculovirus construct. Cells were harvested after 48 h of infection and the rPDE10a protein was purified by metal chelate chromatography on Ni-sepharose 6FF. Tested compounds were dissolved and diluted in 100% DMSO to a concentration 100 fold of the final concentration in the assay. Compound dilutions (0.4 uL) were added in 384 well plates to 20 uL of incubation buffer (50 mM Tris pH 7.8, 8.3 mM MgCl2, 1.7 mM EGTA). 10 uL of rPDE10a enzyme in incubation buffer was added and the reaction was started by addition of 10 uL substrate to a final concentration of 60 nM cAMP and 0.008 uCi 3H-cAMP. The reaction was incubated for 60 min at rt. After incubation, the reaction was stopped with 20 uL of 17.8 mg/mL PDE SPA beads. After sedimentation of the beads during 30 min the radioactivity was measured in a Perkin Elmer Topcount scintillation counter and results were expressed as cpm. For blank values the enz.

Broadly, the IC50 is the concentration at which inhibition is half-maximal. `O=C(O)c1cc(/C=C/c2cn3ccnc(N4CCOCC4)c3n2)nc2ccccc12`: the IC50 is 0.009 µM.
Next, `O=C1Nc2ccc(-c3cnc(N4CCOCC4)c4nc(CCc5ccc6ccccc6n5)cn34)cc2C1(F)F`: 0.019 µM; `c1ccc2nc(OCc3cn4c(C5CCNCC5)cnc(N5CCOCC5)c4n3)ccc2c1`: 0.562 µM.

The record behind these values is ChEMBL document CHEMBL3886529, “PDE10a inhibitors for the treatment of type II diabetes” (2016).
